In patent US20070293512A1, “Condensed Pyrimidine Deriviative and Xanthine Oxidase Inhibitor” (priority 2004, published 2007):
Counter-ions that a name gives are not always drawn.

System: not given
Assay: not given
Settings: not given

Molecule	melting point
O=[N+]([O-])c1cc(-c2nc3c(O)ncnc3s2)ccc1Oc1cccnc1 [Example 32, 4-Hydroxy-2-[3-nitro-4-(3-pyridyloxy)-phenyl]thiazolo[5,4-d]pyrimidine]	276 to 280 °C (dec.)

Biological target: T1, Cow milk Xanthine Oxidase (Bos taurus, UniProt P80457)
T1 construct: Cow milk Xanthine Oxidase (Roche); purchased Roche; host or cells: cow milk (natural source)
T1 sequence (P80457 whole entry): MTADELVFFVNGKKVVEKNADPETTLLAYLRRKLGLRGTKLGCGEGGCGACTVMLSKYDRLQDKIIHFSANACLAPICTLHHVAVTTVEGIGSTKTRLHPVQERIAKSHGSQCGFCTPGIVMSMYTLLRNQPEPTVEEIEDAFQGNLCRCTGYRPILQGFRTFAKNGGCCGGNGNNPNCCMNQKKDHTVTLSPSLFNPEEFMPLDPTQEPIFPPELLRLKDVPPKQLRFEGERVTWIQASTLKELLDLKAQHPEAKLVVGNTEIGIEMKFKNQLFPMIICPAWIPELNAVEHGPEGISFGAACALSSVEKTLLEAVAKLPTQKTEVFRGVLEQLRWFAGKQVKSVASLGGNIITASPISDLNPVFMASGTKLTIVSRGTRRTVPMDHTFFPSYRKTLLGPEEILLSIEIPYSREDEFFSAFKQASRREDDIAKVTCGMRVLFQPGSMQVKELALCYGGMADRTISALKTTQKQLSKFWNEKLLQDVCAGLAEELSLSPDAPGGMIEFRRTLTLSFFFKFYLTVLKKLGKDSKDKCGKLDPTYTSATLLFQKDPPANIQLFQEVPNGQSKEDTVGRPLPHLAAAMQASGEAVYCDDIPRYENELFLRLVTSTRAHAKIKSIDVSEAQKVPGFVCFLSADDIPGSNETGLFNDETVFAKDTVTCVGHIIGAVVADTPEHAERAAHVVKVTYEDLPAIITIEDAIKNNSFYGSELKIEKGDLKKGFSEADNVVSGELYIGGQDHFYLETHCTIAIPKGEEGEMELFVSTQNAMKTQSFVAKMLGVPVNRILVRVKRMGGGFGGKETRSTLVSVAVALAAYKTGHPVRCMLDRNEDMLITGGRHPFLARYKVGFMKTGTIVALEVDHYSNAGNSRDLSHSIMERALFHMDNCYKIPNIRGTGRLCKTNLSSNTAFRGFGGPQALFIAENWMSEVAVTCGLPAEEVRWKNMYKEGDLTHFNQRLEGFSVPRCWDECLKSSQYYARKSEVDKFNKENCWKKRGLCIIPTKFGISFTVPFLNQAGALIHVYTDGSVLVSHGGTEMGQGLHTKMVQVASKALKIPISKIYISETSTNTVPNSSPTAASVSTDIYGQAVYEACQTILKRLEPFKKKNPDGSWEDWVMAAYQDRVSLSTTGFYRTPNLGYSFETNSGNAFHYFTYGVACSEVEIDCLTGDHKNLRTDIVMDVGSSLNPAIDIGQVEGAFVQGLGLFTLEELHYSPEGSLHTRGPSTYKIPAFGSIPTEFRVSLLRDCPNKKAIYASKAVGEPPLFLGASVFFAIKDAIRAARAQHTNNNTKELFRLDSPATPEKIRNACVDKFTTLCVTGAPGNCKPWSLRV
Assay: Xanthine oxidase inhibition, in vitro (oxidation of xanthine, absorbance at 290 nm)
Type: biochemical
Settings: xanthine 250 μM, 50 mM phosphate buffer pH 7.5, 30° C., 10 minutes
Description: The xanthine oxidase inhibiting action (in vitro test) of the compound of the invention was confirmed by measuring inhibition of oxidation of xanthine by xanthine oxidase, as described in Example 50. As is clear from Tables 11 and 12, the compounds of the invention show excellent xanthine oxidase inhibiting action.
Pharmacological Experiment 1 (In Vitro Measuring Method)
1. Preparation of Test Sample
The test compound was dissolved in dimethylsulfoxide and diluted with 50 mM phosphate buffer (pH 7.5), to give a solution of a predetermined concentration.
125 μL of each of the solutions of the test compound having different concentrations was added to 1 mL of a solution of Xanthine (SIGMA, 250 μM) in the 50 mM phosphor buffer (pH 7.5). The mixture was then pre-incubated at 30° C. for 5 min. Subsequently, to the pre-incubated mixture was added 125 μL of Cow milk Xanthine Oxidase (Roche) diluted with the 50 mM phosphate buffer (pH 7.5) to 70 mU/mL, and the mixture was subjected to reaction at 30° C. for 10 minutes. Then, 1N hydrochloric acid, (200 μL) was added to the reaction mixture to terminate the reaction. Subsequently, absorbance at OD 290 nm was measured by means of a spectrophotometer (Shimadzu UV-160A)., to obtain a inhibition ratio. The measured inhibition ration was used to obtain […]
The inhibition ratio was calculated according to the following formula: Inhibition ratio (%)=[1−(B−C)/(A−C)]×100 • A: absorbance of control • B: absorbance measured on a sample containing test compound • C: absorbance of blank (Test Results)

Molecule	IC50 [nM]
O=[N+]([O-])c1cc(-c2nc3c(O)ncnc3s2)ccc1Sc1ccc(Cl)cc1 [Example 3, 2-[4-(4-Chlorophenylthio)-3-nitrophenyl]-4-hydroxythiazolo[5,4-d]pyrimidine potassium salt]	19.2
O=[N+]([O-])c1cc(-c2nc3c(O)ncnc3s2)ccc1Oc1ccc(-c2ccccc2)cc1 [Example 31, 4-Hydroxy-2-[3-nitro-4-(4-phenylphenoxy)-phenyl]thiazolo[5,4-d]pyrimidine]	36.8
COc1ccc(Oc2ccc(-c3nc4c(O)ncnc4s3)cc2[N+](=O)[O-])cc1 [Example 14, 2-[4-(4-Methoxyphenoxy)-3-nitrophenyl]-4-hydroxythiazolo[5,4-d]pyrimidine]	8.5
O=[N+]([O-])c1cc(-c2nc3c(O)ncnc3s2)ccc1Sc1ccc(Cl)cc1 [Example 2, 2-[4-(4-Chlorophenylthio)-3-nitrophenyl]-4-hydroxythiazolo[5,4-d]pyrimidine]	13.8
O=[N+]([O-])c1cc(-c2nc3c(O)ncnc3s2)ccc1Oc1cccnc1 [Example 32, 4-Hydroxy-2-[3-nitro-4-(3-pyridyloxy)-phenyl]thiazolo[5,4-d]pyrimidine]	9.2
2-[4-(4-Chlorophenoxy)-3-cyanophenyl]-4-hydroxythiazolo[5,4-d]pyrimidine potassium salt [Example 24]	18.5
2-[3-Cyano-4-(2-fluorophenoxy)phenyl]-4-hydroxythiazolo[5,4-d]pyrimidine potassium salt [Example 46]	17.7
N#Cc1cc(-c2nc3c(O)ncnc3s2)ccc1Oc1ccc(Cl)cc1 [Example 23, 2-[4-(4-Chlorophenoxy)-3-cyanophenyl]-4-hydroxythiazolo[5,4-d]pyrimidine]	27
O=C(O)c1ccc(Oc2ccc(-c3nc4c(O)ncnc4s3)cc2[N+](=O)[O-])cc1 [Example 26, 2-[4-(4-Carboxyphenoxy)-3-nitrophenyl]-4-hydroxythiazolo[5,4-d]pyrimidine]	9.7
2-[4-(4-Chlorophenylthio)-3-cyanophenyl]-4-hydroxythiazolo[5,4-d]pyrimidine potassium salt [Example 10]	22.6
O=[N+]([O-])c1cc(-c2nc3c(O)ncnc3s2)ccc1Oc1ccccc1F [Example 21, 2-[4-(2-Fluorophenoxy)-3-nitrophenyl]-4-hydroxythiazolo[5,4-d]pyrimidine]	5.4
O=[N+]([O-])c1cc(-c2nc3c(O)ncnc3s2)ccc1Oc1ccc(C(F)(F)F)cc1 [Example 16, 4-Hydroxy-2-[3-nitro-4-[4-(trifluoromethyl)-phenoxy]phenyl]thiazolo[5,4-d]pyrimidine]	52.6
O=[N+]([O-])c1cc(-c2nc3c(O)ncnc3s2)ccc1Sc1ccccc1 [Example 4, 4-Hydroxy-2-(3-nitro-4-phenylthiophenyl)thiazolo[5,4-d]pyrimidine]	18.6
O=[N+]([O-])c1cc(-c2nc3c(O)ncnc3s2)ccc1Oc1cccc(Cl)c1 [Example 17, 2-[4-(3-Chlorophenoxy)-3-nitrophenyl]-4-hydroxythiazolo[5,4-d]pyrimidine]	16.8
O=[N+]([O-])c1cc(-c2nc3c(O)ncnc3s2)ccc1Oc1ccc(Cl)c2ccccc12 [Example 11, 2-[4-(4-Chloro-1-naphthoxy)-3-nitrophenyl]-4-hydroxythiazolo[5,4-d]pyrimidine]	51.9
N#Cc1cc(-c2nc3c(O)ncnc3s2)ccc1Sc1ccc(Cl)cc1 [Example 9, 2-[4-(4-Chlorophenylthio)-3-cyanophenyl]-4-hydroxythiazolo[5,4-d]pyrimidine]	14.6
O=[N+]([O-])c1cc(-c2nc3c(O)ncnc3o2)ccc1Oc1ccc(F)cc1 [Example 39, 2-[4-(4-Fluorophenoxy)-3-nitrophenyl]-4-hydroxyoxazolo[5,4-d]pyrimidine potassium salt]	13.5
CC(C)c1ccc(Oc2ccc(-c3nc4c(O)ncnc4s3)cc2[N+](=O)[O-])cc1 [Example 30, 4-Hydroxy-2-[4-(4-isopropylphenoxy)-3-nitro-phenyl]thiazolo[5,4-d]pyrimidine]	119
N#Cc1cc(-c2nc3c([O-])ncnc3s2)ccc1Oc1ccccc1.[K+] [Example 49, 2-(3-Cyano-4-phenoxyphenyl)-4-hydroxy-thiazolo[5,4-d]pyrimidine potassium salt]	10.8
O=[N+]([O-])c1cc(-c2nc3c(O)ncnc3s2)ccc1Nc1ccccc1 [Example 29, 2-(3-Nitro-4-phenylaminophenyl)-4-hydroxy-thiazolo[5,4-d]pyrimidine]	24.6
O=[N+]([O-])c1cc(-c2nc3c(O)ncnc3s2)ccc1Oc1ccc(Oc2ccccc2)cc1 [Example 28, 2-[3-Nitro-4-(4-phenoxyphenoxy)phenyl]-4-hydroxythiazolo[5,4-d]pyrimidine]	67.6
COC(=O)c1ccc(Oc2ccc(-c3nc4c(O)ncnc4s3)cc2[N+](=O)[O-])cc1 [Example 25, 4-Hydroxy-2-[4-(4-methoxycarbonylphenoxy)-3-nitrophenyl]thiazolo[5,4-d]pyrimidine]	18.7

System: in-plasma uric acid value
Assay: In vivo test: in-plasma uric acid value-inhibition after single oral administration to mouse
Settings: activity value relative to TMX-67 (0.3 mg/kg), ICR mouse, single oral 0.3 mg/kg, blood one hour after administration
Description: The xanthine oxidase inhibiting action was. further confirmed in vivo tests by measuring the uric acid concentration in a plasma obtained from mouse into which the compound of the invention had been orally administered. See Example 51, Tables 11 and 12.
Pharmacological Experiment 2 (In Vivo Test)
The test compound suspended in 1% methylcellulose solution in an amount of 0.3 mg/kg or 3 mg/kg was administered to unfasted ICR mouse (7 W) by forced single oral administration. The blood was collected from main artery from the mouse under etherization after one hour from the administration. The plasma was separated from the collected blood in the conventional manner. The plasma was then subjected to measurement of uric acid value by the enzyme method by means of an automatic analytical apparatus (7060E), to obtain an in-plasma uric acid value-inhibition ratio in the test sample-administered group as compared with a ratio.obtained in the normal group.
Based on the obtained in-plasma uric acid inhibition ratio, activity values (%) relative to activity values obtained in the simultaneously conducted tests using TMX-67 (0.3 mg/kg) or allopurinol (3 mg/kg).

Molecule	In Vivo (%) TMX-67 (0.3 mg/kg) [%]
O=[N+]([O-])c1cc(-c2nc3c([O-])ncnc3s2)ccc1Oc1ccc(F)cc1.[K+] [Example 13, 2-[4-(4-Fluorophenoxy)-3-nitrophenyl]-4-hydroxythiazolo[5,4-d]pyrimidine potassium salt]	141
N#Cc1cc(-c2nc3c([O-])ncnc3s2)ccc1Sc1ccc(F)cc1.[K+] [Example 43, 2-[3-Cyano-4-(4-fluorophenylthio)phenyl]-4-hydroxythiazolo[5,4-d]pyrimidine potassium salt]	185
O=[N+]([O-])c1cc(-c2nc3c([O-])ncnc3s2)ccc1Oc1ccccc1.[K+] [Example 8, 2-(3-Nitro-4-phenoxyphenyl)-4-hydroxythia-zolo[5,4-d]pyrimidine potassium salt]	125
2-[3-Cyano-4-(4-fluorophenoxy)phenyl]-4-hydroxythiazolo[5,4-d]pyrimidine potassium salt [Example 37]	107
2-[4-(4-Chlorophenoxy)-3-cyanophenyl]-4-hydroxythiazolo[5,4-d]pyrimidine potassium salt [Example 24]	28
2-[3-Cyano-4-(2-fluorophenoxy)phenyl]-4-hydroxythiazolo[5,4-d]pyrimidine potassium salt [Example 46]	223
O=[N+]([O-])c1cc(-c2nc3c(O)ncnc3s2)ccc1Oc1ccc(O)cc1 [Example 35, 4-Hydroxy-2-[4-(4-hydroxyphenoxy)-3-nitro-phenyl]thiazolo[5,4-d]pyrimidine]	61
2-[4-(4-Chlorophenylthio)-3-cyanophenyl]-4-hydroxythiazolo[5,4-d]pyrimidine potassium salt [Example 10]	84
COc1ncnc2sc(-c3ccc(Oc4ccc(F)cc4)c(C#N)c3)nc12 [Example 40, 2-[3-Cyano-4-(4-fluorophenoxy)phenyl]-4-methoxythiazolo[5,4-d]pyrimidine]	30
N#Cc1cc(-c2nc3c([O-])ncnc3s2)ccc1Oc1ccccc1.[K+] [Example 49, 2-(3-Cyano-4-phenoxyphenyl)-4-hydroxy-thiazolo[5,4-d]pyrimidine potassium salt]	140
O=[N+]([O-])c1cc(-c2nc3c(O)ncnc3s2)ccc1Oc1cccnc1.[K] [Example 33, 4-Hydroxy-2-[3-nitro-4-(3-pyridyloxy)-phenyl]thiazolo[5,4-d)pyrimidine potassium salt]	48

Same assay, conditions: activity value relative to allopurinol (3 mg/kg), ICR mouse, single oral 3 mg/kg, blood one hour after administration

Molecule	In Vivo (%) allopurinol (3 mg/kg) [%]
O=C([O-])c1ccc(Oc2ccc(-c3nc4c([O-])ncnc4s3)cc2[N+](=O)[O-])cc1.[K+].[K+] [Example 27, 2-[4-(4-Carboxyphenoxy)-3-nitrophenyl]-4-hydroxythiazolo[5,4-d]pyrimidine dipotassium salt]	36
COc1ncnc2sc(-c3ccc(Oc4ccc(F)cc4)c(C#N)c3)nc12 [Example 40, 2-[3-Cyano-4-(4-fluorophenoxy)phenyl]-4-methoxythiazolo[5,4-d]pyrimidine]	107
